According to patent publication US20050233984A1, “Composition for preventing or treating degenerative brain diseases comprising a hydrolysate of ginsenosides” (Digital Biotech Co., Ltd., priority 2002, published 2005):

What was measured:
[1] = tested on: neuroblastoma B103 cell line; assay: MTT test: anti-oxidative effect, H2O2 in place of beta-amyloid; assay type: cell-based; details: B103 cells, H2O2-only control = 100%
Method: (§1) 5×10^3 cells of neuroblastoma B103 cell line (donated by Dr. David Schubert of the Salk Institute, USA) were placed in each well of a 96-well plate with 100 μl of DMEM (Dulbecco's Minimal Eagle's Medium) containing 10% fetal bovine serum (FBS), and cultured at 37° C. under 8% CO2 for 1 day. After changing the medium to serum-free DMEM, the cells were treated with various concentrations of test compounds and, 1 hour later, with 25 μM of beta-amyloid (25-35 peptide; US peptide, CA, USA). The cells were cultured at 37° C. for 18 hours, treated with 15 μl of MTT solution [10 mg/ml solution of 3-(4,5-dimethyl-2-thiazolyl)-2,5-diphenyl-2H-tetrazolium bromide in phosphate buffered saline (PBS)], and allowed to react at 37° C. for 3 to 4 hours. 100 μl of lysis buffer (10% SDS, 50% dimethylformamide, pH 4.7) was added to the wells, and the cells were cultured overnight at room temperature and relative humidity of 90%. Optical density (OD) of each well was measured at […] and 630 nm, respectively, using a scanning multiwell spectrophotometer, and then the OD value at 630 nm was subtracted from that at 570 nm.
In order to examine whether compounds originating from ginseng can block oxidative stress, the procedure of Example 1 was repeated except for using 1 μM of H2O2 in place of beta-amyloid, and the survival rates of the neural cells were determined.

[2] = tested on: neuroblastoma B103 cell line; assay: MTT test: apoptosis induced by staurosporin; assay type: cell-based; details: B103 cells, staurosporin-only control = 100%
Method: as §1
Further, in order to examine whether compounds originating from ginseng can block apoptosis, […], and the survival rates of the neural cells were determined.

α-secretase = assay: sAPPα secretion by Western blotting in B103 cells; assay type: cell-based; details: 1 μM, 18 hours, compared with untreated control, FIG. 5
Method: In order to examine whether the ginseng-originated compounds can inhibit beta-amyloid production, the activity of α-secretase, which cleaves beta-amyloid, was examined.
1×10^6 cells of neuroblastoma B103 cell line (donated by Dr. David Schubert of the Salk Institute, USA), which secretes APP (amyloid precursor protein), were plated on a […] with 100 μl of DMEM medium containing 10% FBS (Fetal Bovine Serum) and cultured overnight at […] under 8% CO2. The medium was replaced with serum-free DMEM (Gibco, USA), and PPD, PPT or PDBu (phorbol-12, 13-dibutyrate: Sigma Co., USA) was added thereto at a concentration of 1 μM each. The cells were cultured further for 18 hours. The supernatant was isolated from each culture solution and concentrated through a concentration filter (viva spin centricon, obtained from: Vivascience, Binbrook Hill, Binbrook, England). The concentrate was prepared to have a protein concentration of 2 μg/ml and then subjected to electrophoresis on a 8% SDS-PAGE gel.
Protein bands on the gel were transferred to PVDF (polyvinylidene fluoride) membrane (Millipore Co., Bedford, Mass., USA) and blocked with 5% skim milk. The bands on PVDF were reacted with sAPPα-specific antibody 6E10 (1:2000 dilution, Cat. No. 320-05, Senetek, Maryland heights, Mo., USA) at room temperature for 2 hours. […] The protein bands were then quantified via image analysis.

synaptophysin = assay: Synaptic density: synaptophysin in hippocampus and cortex by Western blotting; assay type: in vivo; details: 0.5 mg/kg intraperitoneally once a day for 4 days, C57BL/6 mice
Method: 1 mg/kg of ginsenoside Rc or Mc, or compound Y or K, or 0.5 mg/kg of PPD or PPT was intraperitoneally administered to C57BL/6 mice (9-week old, weight: about 25 g) once a day for 4 days. Then, the brain of the mouse was removed and the hippocampus and cortex were separated therefrom. The amounts of synaptophysin, a protein marker of synaptic vesicle, in the hippocampus and cortex were quantified with Western blotting and an image analysis with a densitometer (LAS100, Fujifilm, Japan) employing a synaptophysin-specific antibody (Cat #902 314, Boehringer Mannheim, Germany).

[3] = Degree of BBB penetration: pharmacokinetics in blood and brain by LC-mass; assay type: in vivo, Sprague-Dawley rat; details: SD rat; for detection of the peak in the brain tissue sample: 15 minutes after administration of 1 mg/kg of Rg1 or Rb1, FIGS. 10a and 10b
Method: A male Sprague-Dawley rat (weight 250-300 g) was lightly anesthetized with ether and catheterized with a polyethylene tube (PE-50) in the femoral artery and vein. After the rat recovered, a saline solution containing 1 mg/kg of Rg1 or Rb1 was administered into the femoral vein through the intravenous bolus administration. 300 μl blood samples were collected from the rat's femoral artery at 2, 5, 10, 15, 20, 30, 45 and 60 minutes after the administration. Each blood sample was centrifuged to obtain 100 μl of plasma. A plasma sample was prepared as in (2) of step 1 with the plasma. 20 μl of the sample was injected into the LC mass system as in Step 1, and ginsenosides Rg1 and Rb1 and their metabolites PPD and PPT were quantified. The plasma concentrations of ginsenosides and their metabolites were calculated in the forms of weight per plasma (ml) (in case of ginsenosides) or peak size (in case of metabolites).
Immediately after collecting the blood samples, the rats were decapitated and brain tissues were obtained therefrom. The tissues were rinsed with ice-cooled saline, placed in a 15 ml Falcon tube and then weighed precisely. Acetonitrile was added to the tube in an amount twice the weight of the tissue sample, and the sample was homogenized using a tissue homogenizer (Ultra-Turrax T25, JANKE&KUNKEL IKA-Labortechnik). The mixture was centrifuged at 3,000 rpm for 20 minutes. 300 μl of the resulting supernatant was dried in a speed-vac, and 300 μl of acetonitrile was added thereto. 20 μl of the resulting mixture was injected in the LC mass system as in Step 1 to quantify the concentrations of ginsenosides and their metabolites in the brain, and the measured concentrations were represented by weight per gram of the brain tissue or peak size.
Separation and detection conditions for ginsenosides Rg1 and Rb1 were as described in Step 1, and those for metabolites PPD and PPT were as follows:
The transfer rate of the substances into the brain (Kbrain) can be represented by the ratio of the mean concentration of the substance in the brain (Cmean,brain) to the mean plasma concentration (Cmean,plasma) as in Equation 1. [formula]
The mean concentration of a substance can be determined by dividing the area under the concentration-time curve corresponding to time 0 to t by t and, accordingly, the transfer rate of the substance into the brain (Kbrain) can be calculated by Equation 2 shown below. [formula]

[4] = test compound 1 μM alone, without H2O2
[5] = test compound 1 μM + 0.1 μM staurosporin
[6] = test compound 1 μM alone, without staurosporin

SMILES | Survival rate (%) ([1]; test compound 1 μM + 1 μM H2O2) | Survival rate (%) [1, 4] | Survival rate (%) [2, 5] | Survival rate (%) [2, 6] | sAPPα secretion level (α-secretase) | amount of synaptophysin in cortex (synaptophysin) | amount of synaptophysin in hippocampus (synaptophysin) | detection of the peak in the brain tissue sample [3] | Survival rate (%) ([1]; test compound 10 μM + 1 μM H2O2) | Survival rate (%) ([1]; test compound 10 μM alone, without H2O2) | Survival rate (%) ([2]; test compound 10 μM + 0.1 μM staurosporin) | Survival rate (%) ([2]; test compound 10 μM alone, without staurosporin) | transfer rate into the brain (Kbrain) ([3]; calculated with Equations 1 and 2 (mean brain / mean plasma concentration)) | concentration in the plasma versus the brain tissue (in words) ([3]; metabolite after 1 mg/kg intravenous ginsenoside, FIG. 12)
CC(C)=CCCC(C)(O)[C@H]1CC[C@]2(C)[C@@H]1[C@H](O)C[C@@H]1[C@@]3(C)CC[C@H](O)C(C)(C)[C@@H]3CC[C@]12C (stereo in doubt) [PPD, protopanaxadiol] | 219.6 ± 3.0% | 494.3 ± 3.5% | 89.2 ± 1.0% | 176.5 ± 3.5% | higher | no change | significantly increased | well detected | – | – | – | – | – | –
CC(C)=CCC[C@](C)(O)[C@H]1CC[C@]2(C)[C@@H]1[C@H](O)C[C@@H]1[C@@]3(C)CC[C@H](O)C(C)(C)[C@@H]3[C@@H](O)C[C@]12C [PPT, protopanaxatriol] | 381.3 ± 0.9% | 516.1 ± 1.6% | 107.8 ± 2.3% | 169.7 ± 1.6% | higher | no change | significantly increased | well detected | 457.8 ± 2.5% | 516.5 ± 1.2% | 104.6 ± 2.7% | 173.1 ± 1.2% | 130±46.4% | almost identical
